According to article PMC10077692, “Phytochemical profile, comparative evaluation of Satureja montana alcoholic extract for antioxidants, anti-inflammatory and molecular docking studies” (BMC Complementary Medicine and Therapies, 2023):

System: MDA
Test: In-vitro antioxidant assay, MDA
Type: biochemical
Protocol: The enzymatic assays of COXs, LOX, TAC, Catalase, MDA, GSH, SOD, TNF -α, and MPO were determined colorimetrically as mentioned previously in reports.
Microsoft Excel 2010 program. All the data in Table 4 was represented as mean ± SD [23].
Total antioxidant capacity is the measure of the number of free radicals scavenged by a test solution, being used to evaluate the antioxidant capacity of biological samples. […] The standard ascorbic acid results were (19.7, 17.2 and 13.1 IU/ml) for TAC, Catalase and SOD, respectively.

O=C1O[C@H]([C@@H](O)CO)C(O)=C1O [ascorbic acid]
MDA level: 15.3 µg/mL
